Test results published in PubChem BioAssay (NCI).
Where “and” joins values, the source holds several entries; their conditions need not be identical. Equal values may be shown once.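 Cultured in 96-well plates, cells were exposed to test compound for 48 hours across five concentrations. GI50: concentration for 50% inhibition of growth. TGI is the concentration that stops growth completely.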

Assays:
Experiment in all cases: growth of human tumour cells (NCI), 48 h
CAKI-1 renal = tested on: CAKI-1 renal
MDA-MB-231 breast = tested on: MDA-MB-231 breast
MDA-MB-435 = tested on: MDA-MB-435
NCI-H522 lung = tested on: NCI-H522 lung
NCI/ADR-RES ovarian = tested on: NCI/ADR-RES ovarian
SF-268 CNS = tested on: SF-268 CNS
SK-MEL-2 melanoma = tested on: SK-MEL-2 melanoma
SK-MEL-5 melanoma = tested on: SK-MEL-5 melanoma
SK-OV-3 ovarian = tested on: SK-OV-3 ovarian
T-47D breast = tested on: T-47D breast

SMILES	GI50 (CAKI-1 renal)	TGI (CAKI-1 renal) [µM]	GI50 (MDA-MB-231 breast)	TGI (MDA-MB-231 breast)	GI50 (MDA-MB-435)	TGI (MDA-MB-435)	GI50 (NCI-H522 lung)	TGI (NCI-H522 lung)	GI50 (NCI/ADR-RES ovarian)	TGI (NCI/ADR-RES ovarian)	GI50 (SF-268 CNS)	TGI (SF-268 CNS)	GI50 (SK-MEL-2 melanoma)	TGI (SK-MEL-2 melanoma)	GI50 (SK-MEL-5 melanoma)	TGI (SK-MEL-5 melanoma)	GI50 (SK-OV-3 ovarian)	TGI (SK-OV-3 ovarian)	GI50 (T-47D breast)	TGI (T-47D breast)
COc1cc(NC2CCCCC2O)c2nc(-c3ccc(Cl)cc3)ccc2c1 (stereo not given)	4.73 µM	63.2	4.43 µM	57.8 µM	4.22 µM	16.6 µM	4.83 µM	> 100 µM	6.1 µM	> 100 µM	9.68 µM	> 100 µM	12.5 µM	59.3 µM	10.6 µM	23.1 µM	33.5 µM	> 100 µM	4.9 µM	> 100 µM
C#C[C@]1(O)CC[C@H]2[C@@H]3CC=C4c5nc(N)sc5CC[C@]4(C)[C@H]3CC[C@@]21C	3.08 µM	14.8	3.07 µM	9.67 µM	2.22 µM	7.2 µM	2.52 µM	7.94 µM	3.19 µM	16 µM	3.57 µM	16.5 µM	2.72 µM	7.57 µM	1.91 µM	3.63 µM	3.5 µM	10.5 µM	3.98 µM	29.7 µM
CCn1c(-c2nonc2N)nc2cnc(Oc3cccc(NC(=O)c4ccc(N(C)C)cc4)c3)cc21	0.688 µM	> 25	> 17 µM	> 25 µM	> 25 µM	> 25 µM	> 13.8 µM	> 25 µM	> 25 µM	> 25 µM	2.48 µM	> 25 µM	> 25 µM	> 25 µM	> 25 µM	> 25 µM	> 13.7 µM	> 25 µM	9.62 µM	> 25 µM
COc1ccc(-c2csc(Nc3cccc(-c4csc(C)n4)c3)n2)cc1	1.15 µM	> 14	0.824 µM	4.52 µM	0.366 µM	1.02 µM	1.23 µM	> 16.4 µM	0.534 µM	4.19 µM	2.48 µM	> 50 µM	4.7 µM	> 27 µM	1.19 µM	7.85 µM	2.17 µM	> 50 µM	11.5 µM	> 50 µM
CS(=O)(=O)Nc1cc(-c2ccc3ncnc(Nc4cccc(Cl)c4)c3c2)cnc1Cl	0.299 µM	7.71	1.05 µM	5.56 µM	0.418 µM	2.67 µM	0.391 µM	6.86 µM	1.19 µM	12 µM	0.337 µM	4.71 µM	0.345 µM	2.05 µM	0.35 µM	1.47 µM	0.262 µM	1.58 µM	0.0237 µM	0.635 µM
CC1(C)N=C(N)N=C(N)N1c1cccc(CCc2ccccc2)c1	40.2 µM	> 100	4.27 µM	> 100 µM	0.154 µM	35.4 µM	0.429 µM	34.8 µM	> 100 µM	> 100 µM	0.34 µM	57.5 µM	1.94 µM	> 67.5 µM	0.429 µM	8.82 µM	5.5 µM	> 100 µM	2.95 µM	> 100 µM
COc1cccc(-c2nc3sccn3c2-c2ccnc(NCCCNS(=O)(=O)c3ccccc3)c2)c1	2.81 µM	> 100	3.48 µM	> 100 µM	3.53 µM	> 100 µM	2.34 µM	15 µM	2.62 µM	8.7 µM	3.46 µM	> 100 µM	2.87 µM	8.85 µM	1.88 µM	3.77 µM	5.43 µM	> 100 µM	1.73 µM	6.24 µM
COc1cc2ncnc(Oc3cccc(NC(=O)Nc4cc(C(C)(C)C(F)(F)F)on4)c3)c2cc1OC	1.06 µM and 1.44 µM	> 43	1.03 µM and 0.571 µM	4.44 µM and 7.3 µM	0.335 µM and 0.484 µM	5.74 µM and > 10 µM	0.37 µM and 0.407 µM	12.6 µM and > 7.06 µM	2.99 µM and 2.86 µM	24.6 µM and > 10 µM	2.59 µM and 2.69 µM	17.4 µM and > 10 µM	0.443 µM and 0.565 µM	2.26 µM and 3.06 µM	1.3 µM and 1.45 µM	3.01 µM and 3.67 µM	0.612 µM and 0.962 µM	3.52 µM and 4.82 µM	1.96 µM and 1.67 µM	11.7 µM and > 10 µM
C[C@@H]1CCc2ncc(F)cc2[C@H]2CCCN2c2ccn3ncc(c3n2)C(=O)N1	23 µM	> 100	29.9 µM	> 100 µM	83.1 µM	> 100 µM	83.7 µM	> 100 µM	> 100 µM	> 100 µM	> 100 µM	> 100 µM	> 100 µM	> 100 µM	> 100 µM	> 100 µM	91.7 µM	> 100 µM	86.1 µM	> 100 µM
